Activity calls are given as the source filed them. The rule behind the calls is not given here.
Tested on: CCRIS mutagenicity, Ames/micronucleus/aberration tests
Test: CCRIS mutagenicity studies
Conditions: Test System: AMES SALMONELLA TYPHIMURIUM, Method: PREINCUBATION

Measured: mutagenic call

CCCCCCCCCCCCCCCCC1CO1 (stereo not given)
inactive: Strain/Indicator: TA97, Metabolic Activation: HAMSTER, LIVER, S-9, AROCLOR 1254 (10%) inactive; negative | Strain/Indicator: TA97, Metabolic Activation: HAMSTER, LIVER, S-9, AROCLOR 1254 (30%) inactive; negative | Strain/Indicator: TA97, Metabolic Activation: NONE inactive; negative | Strain/Indicator: TA97, Metabolic Activation: RAT, LIVER, S-9, AROCLOR 1254 (10%) inactive; negative | Strain/Indicator: TA97, Metabolic Activation: RAT, LIVER, S-9, AROCLOR 1254 (30%) inactive; negative | Strain/Indicator: TA98, Metabolic Activation: HAMSTER, LIVER, S-9, AROCLOR 1254 (10%) inactive; negative | Strain/Indicator: TA98, Metabolic Activation: HAMSTER, LIVER, S-9, AROCLOR 1254 (30%) inactive; negative | Strain/Indicator: TA98, Metabolic Activation: NONE inactive; negative | Strain/Indicator: TA98, Metabolic Activation: RAT, LIVER, S-9, AROCLOR 1254 (10%) inactive; negative | Strain/Indicator: TA98, Metabolic Activation: RAT, LIVER, S-9, AROCLOR 1254 (30%) inactive; negative | Strain/Indicator: TA100, Metabolic Activation: HAMSTER, LIVER, S-9, AROCLOR 1254 (10%) inactive; negative | Strain/Indicator: TA100, Metabolic Activation: HAMSTER, LIVER, S-9, AROCLOR 1254 (30%) inactive; negative | Strain/Indicator: TA100, Metabolic Activation: NONE inactive; negative | Strain/Indicator: TA100, Metabolic Activation: RAT, LIVER, S-9, AROCLOR 1254 (10%) inactive; negative | Strain/Indicator: TA100, Metabolic Activation: RAT, LIVER, S-9, AROCLOR 1254 (30%) inactive; negative | Strain/Indicator: TA1535, Metabolic Activation: HAMSTER, LIVER, S-9, AROCLOR 1254 (10%) inactive; negative | Strain/Indicator: TA1535, Metabolic Activation: HAMSTER, LIVER, S-9, AROCLOR 1254 (30%) inactive; negative | Strain/Indicator: TA1535, Metabolic Activation: NONE inactive; negative | Strain/Indicator: TA1535, Metabolic Activation: RAT, LIVER, S-9, AROCLOR 1254 (10%) inactive; negative | Strain/Indicator: TA1535, Metabolic Activation: RAT, LIVER, S-9, AROCLOR 1254 (30%) inactive; negative | Strain/Indicator: TA1537, Metabolic Activation: HAMSTER, LIVER, S-9, AROCLOR 1254 (10%) inactive; negative | Strain/Indicator: TA1537, Metabolic Activation: HAMSTER, LIVER, S-9, AROCLOR 1254 (30%) inactive; negative | Strain/Indicator: TA1537, Metabolic Activation: NONE inactive; negative | Strain/Indicator: TA1537, Metabolic Activation: RAT, LIVER, S-9, AROCLOR 1254 (10%) inactive; negative | Strain/Indicator: TA1537, Metabolic Activation: RAT, LIVER, S-9, AROCLOR 1254 (30%) inactive; negative
